From patent US9006450B2 (Boehringer Ingelheim International GmbH, priority 2010, dated 2015) come the findings set out here.

T1 sequence (O00763 129-2458 limits assumed): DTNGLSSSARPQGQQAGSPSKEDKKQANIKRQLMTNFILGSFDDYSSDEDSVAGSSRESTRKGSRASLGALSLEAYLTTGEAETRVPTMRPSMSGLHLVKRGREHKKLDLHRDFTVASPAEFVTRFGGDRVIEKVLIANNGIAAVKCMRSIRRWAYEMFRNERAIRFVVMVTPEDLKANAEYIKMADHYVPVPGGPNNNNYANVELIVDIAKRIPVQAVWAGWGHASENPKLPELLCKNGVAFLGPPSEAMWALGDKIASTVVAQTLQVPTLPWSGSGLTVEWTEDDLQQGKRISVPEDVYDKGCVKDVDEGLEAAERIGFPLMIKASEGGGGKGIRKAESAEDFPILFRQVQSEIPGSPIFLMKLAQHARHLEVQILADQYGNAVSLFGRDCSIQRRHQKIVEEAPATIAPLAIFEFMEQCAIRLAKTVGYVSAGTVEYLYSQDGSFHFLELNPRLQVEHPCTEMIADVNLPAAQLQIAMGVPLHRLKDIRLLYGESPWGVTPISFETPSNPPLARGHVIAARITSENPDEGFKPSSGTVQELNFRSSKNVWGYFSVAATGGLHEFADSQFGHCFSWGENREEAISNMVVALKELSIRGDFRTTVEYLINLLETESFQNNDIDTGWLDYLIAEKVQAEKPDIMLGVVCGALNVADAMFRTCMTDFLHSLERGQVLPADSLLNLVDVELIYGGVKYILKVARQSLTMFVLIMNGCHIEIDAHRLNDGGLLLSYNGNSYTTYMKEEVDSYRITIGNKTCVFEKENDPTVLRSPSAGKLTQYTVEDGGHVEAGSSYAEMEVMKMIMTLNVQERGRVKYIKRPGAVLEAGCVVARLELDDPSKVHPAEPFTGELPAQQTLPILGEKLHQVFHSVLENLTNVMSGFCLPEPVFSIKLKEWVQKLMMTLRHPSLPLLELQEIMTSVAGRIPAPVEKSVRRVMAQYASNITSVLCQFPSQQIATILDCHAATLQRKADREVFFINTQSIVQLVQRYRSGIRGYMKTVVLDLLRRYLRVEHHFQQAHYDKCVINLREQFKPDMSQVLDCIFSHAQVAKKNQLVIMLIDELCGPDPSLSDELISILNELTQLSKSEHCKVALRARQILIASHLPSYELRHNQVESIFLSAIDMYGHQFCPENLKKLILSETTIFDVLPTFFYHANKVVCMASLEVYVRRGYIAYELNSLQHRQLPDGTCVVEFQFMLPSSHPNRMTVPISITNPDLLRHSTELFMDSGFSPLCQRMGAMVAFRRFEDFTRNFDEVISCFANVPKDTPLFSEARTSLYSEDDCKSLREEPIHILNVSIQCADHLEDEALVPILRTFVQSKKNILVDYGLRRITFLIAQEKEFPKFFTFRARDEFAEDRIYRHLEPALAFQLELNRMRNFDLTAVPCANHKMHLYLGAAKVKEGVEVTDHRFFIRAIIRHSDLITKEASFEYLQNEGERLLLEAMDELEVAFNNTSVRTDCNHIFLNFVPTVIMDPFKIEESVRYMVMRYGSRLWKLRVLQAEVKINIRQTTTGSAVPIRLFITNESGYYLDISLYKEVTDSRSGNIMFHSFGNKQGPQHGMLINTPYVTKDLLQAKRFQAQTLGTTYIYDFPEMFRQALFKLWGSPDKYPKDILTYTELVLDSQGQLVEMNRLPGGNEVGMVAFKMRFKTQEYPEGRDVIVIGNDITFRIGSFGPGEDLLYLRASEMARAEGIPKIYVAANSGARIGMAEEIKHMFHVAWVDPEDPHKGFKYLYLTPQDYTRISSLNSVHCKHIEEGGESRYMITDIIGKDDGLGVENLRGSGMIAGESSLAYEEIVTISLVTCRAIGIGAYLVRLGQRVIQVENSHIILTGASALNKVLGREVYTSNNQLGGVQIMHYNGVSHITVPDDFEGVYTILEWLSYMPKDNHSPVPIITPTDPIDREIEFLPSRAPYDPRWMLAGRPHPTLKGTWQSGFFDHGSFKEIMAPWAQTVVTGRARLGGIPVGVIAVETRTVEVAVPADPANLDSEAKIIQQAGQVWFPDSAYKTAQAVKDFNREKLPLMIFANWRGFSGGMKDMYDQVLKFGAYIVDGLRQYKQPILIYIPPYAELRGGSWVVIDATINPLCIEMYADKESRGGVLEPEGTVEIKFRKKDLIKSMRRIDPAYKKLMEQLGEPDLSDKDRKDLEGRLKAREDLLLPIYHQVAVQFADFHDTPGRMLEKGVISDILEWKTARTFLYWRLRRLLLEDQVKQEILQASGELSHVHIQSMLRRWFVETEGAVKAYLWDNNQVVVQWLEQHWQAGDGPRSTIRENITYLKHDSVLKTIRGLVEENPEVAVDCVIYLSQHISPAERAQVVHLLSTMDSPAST

This test has as its target T1, human ACC2 (Homo sapiens, UniProt O00763).
T1 construct: made in house; host or cells: insect cells (baculoviral expression system)
In words: ACC2 assay, spectrophotometric 384 well assay (NADH-linked, coupled lactate dehydrogenase/pyruvate kinase). The settings on record: ACC2 assay, hACC2 construct lacking 128 N-terminal amino acids, 25° C., 340 nm; read-out: IC50. Format: biochemical. The procedure, abridged: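 Human ACC2 lacking N-terminal 128 aa, baculovirus/insect-cell expressed, anion-exchange purified; 100 mM Tris pH 7.5, 10 mM citrate, 25 mM KHCO3, 1% DMSO. Started with 200 μM NADH and acetyl-CoA plus 500 μM ATP; PK/LDH-coupled A340 decrease read 15 min at 25° C. IC50 by nonlinear fit of low-control-subtracted slopes.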
As to `CC(=O)N[C@@H](C)c1ccc(C2CCN(c3ncc(C(=O)NCC4CCCCO4)cn3)CC2)cc1` (stereo partly shown) [Example 18.41], the IC50 was 21.4 µM.
With `COCCCOc1ccc(N2CCC(c3ccc([C@H](C)NC(C)=O)cc3)CC2)c(F)c1` [Example 1.99] the figure was 0.33 µM.
With `CC(=O)N[C@@H](C)c1ccc(C2CCN(c3cccc(OCC(C)C)c3)CC2)cc1` [Example 8.4] the figure was 0.4 µM; with `CC(=O)N[C@@H](C)c1ccc(C2CCN(c3ncccn3)CC2)cc1` [Example 4.45], 1.5 µM.
The result for `CC(=O)N[C@@H](C)c1ccc(C2CCN(c3ccc(OC4CC4)cc3C)CC2)cc1` [Example 1.92] reads 0.12 µM; that for `COc1ccc(-c2cnc(N3CCC(c4ccc([C@H](C)NC(C)=O)cc4)CC3)nc2)c(F)c1` [Example 10.37], 0.19 µM; that for `CC(=O)N[C@@H](C)c1ccc(C2CCN(c3ncc(-c4ccc(F)c(C#N)c4)cn3)CC2)cc1` [Example 10.50], 0.05 µM.
On to `CC(=O)N[C@@H](C)c1ccc(C2CCN(c3ncc4nc(-c5ccsc5)oc4n3)CC2)cc1` [Example 5.5], for which the IC50 was 0.02 µM.
With `CCCCOc1ccc(N2CCC(c3ccc([C@H](C)NC(C)=O)cc3)CC2)cc1F` [Example 8.42] the figure was 0.09 µM.
The result for `CC(=O)N[C@@H](C)c1ccc(C2CCN(c3ccc(OCCC4CC4)cc3F)CC2)cc1` [Example 1.101] reads 0.05 µM; that for `CC(=O)N[C@@H](C)c1ccc(C2CCN(c3ncc(C(=O)Nc4ccc5c(c4)OCO5)cn3)CC2)cc1` [Example 18.18], 1.1 µM; that for `CC(=O)N[C@@H](C)c1ccc(C2CCN(c3ccc(OCC(C)C)c(C#N)c3)CC2)cc1` [Example 8.27], 2.6 µM.
The result for `CC(=O)N[C@@H](C)c1ccc(C2CCN(c3nccc(C(F)(F)F)c3F)CC2)cc1` [Example 5.11] reads 0.15 µM; that for `CCOc1ccc(-c2cnc(N3CCC(c4ccc([C@H](C)NC(C)=O)cc4)CC3)nc2)cc1` [Example 10.5], 0.54 µM.
Consider `CC(=O)N[C@@H](C)c1ccc(C2CCN(c3ncccc3C)CC2)cc1` [Example 5.49], for which the half-maximal inhibitory concentration (IC50) stood at 2.6 µM.
The result for `CC(=O)N[C@@H](C)c1ccc(C2CCN(c3ncc(C(=O)NCc4ccoc4)cn3)CC2)cc1` [Example 18.32] reads 5.3 µM.
As for `CC(=O)N[C@@H](C)c1ccc(C2CCN(c3ncc(C(=O)Nc4ccc(CN(C)C)cc4)cn3)CC2)cc1` [Example 18.86], the IC50 is 11.3 µM.
The result for `CC(=O)N[C@@H](C)c1ccc(C2CCN(c3ccnc(OC(C)C)c3)CC2)cc1` [Example 3.3] reads 0.11 µM; that for `CC(=O)N[C@@H](C)c1ccc(C2CCN(c3nnc(-c4ccccc4)s3)CC2)cc1` [Example 5.33], 0.33 µM; that for `CC(=O)N[C@@H](C)c1ccc(C2CCN(c3ncc(C(=O)NCc4ccccc4)cn3)CC2)cc1` [Example 18.92], 2.2 µM.
The result for `CCCOc1ccc(N2CCC(c3ccc([C@H](C)NC(C)=O)cc3)CC2)cc1` [Example 3.8] reads 0.34 µM.
With `CC(=O)N[C@@H](C)c1ccc(C2CCN(c3cccc(OC4CCCC4)c3)CC2)cc1` [Example 8.5] the figure was 0.22 µM; with `CC(=O)N[C@@H](C)c1ccc(C2CCN(c3ccnc(NCc4ccco4)n3)CC2)cc1` [Example 11.60], 5.3 µM; with `CC(=O)N[C@@H](C)c1ccc(C2CCN(c3ncc(-c4ccc5c(c4)CCO5)cn3)CC2)cc1` [Example 10.24], 0.07 µM.
Turning to `C[C@H](NC(=O)C1CC1)c1ccc(C2CCN(c3nc(Oc4ccc(F)cc4)ncc3F)CC2)cc1` [Example 11.120], the half-inhibitory concentration (IC50) is 0.28 µM.
The result for `CC(=O)N[C@@H](C)c1ccc(C2CCN(c3ccc(OCC4CCO4)c(C)c3)CC2)cc1` (stereo partly shown) [Example 8.47] reads 2.6 µM.
Regarding `CC(=O)N[C@@H](C)c1ccc(C2CCN(c3ccc(-c4ccccc4)cn3)CC2)cc1` [Example 4.15], the IC50 turned out to be 0.22 µM.
With `CC(=O)N[C@@H](C)c1ccc(C2CCN(c3nc(N4CCCCC4)ncc3C(F)(F)F)CC2)cc1` [Example 5.201] the figure was 0.79 µM; with `COC1CN(c2nccc(N3CCC(c4ccc([C@H](C)NC(C)=O)cc4)CC3)n2)C1` [Example 11.80], 2.3 µM.
For the molecule `CC(=O)N[C@@H](C)c1ccc(C2CCN(c3cccc(C)n3)CC2)cc1` [Example 5.42], the half-inhibitory concentration (IC50) was 0.21 µM.
With `CC(=O)N[C@@H](C)c1ccc(C2CCN(c3ccnc(OC4CCCC4)n3)CC2)cc1` [Example 11.8] the figure was 0.49 µM; with `CCOc1ccc(N2CCC(c3ccc([C@H](C)NC(=O)CC)cc3)CC2)c(F)c1` [Example 1.168], 0.5 µM.
With `CC(=O)N[C@@H](C)c1ccc(C2CCN(c3cccc(OC4CCC4)c3)CC2)cc1` [Example 1.88] the figure was 0.54 µM; with `CCCOc1ccc(N2CCC(c3ccc([C@H](C)NC(C)=O)cc3)CC2)c(F)c1` [Example 1.64], 0.07 µM.
Regarding `CC(=O)N[C@@H](C)c1ccc(C2CCN(c3ccnc(NC4CCOCC4)n3)CC2)cc1` [Example 11.73], the IC50 came out at 15.6 µM.
Consider `C[C@H](NC(=O)C1CC1)c1ccc(C2CCN(c3nc(Cl)ncc3F)CC2)cc1` [Example 5.36], for which the IC50 was found to be 3.1 µM.
For `CCCCOc1ccc(N2CCC(c3ccc([C@H](C)NC(C)=O)cc3)CC2)nn1` [Example 3.13], the IC50 worked out at 0.47 µM.
The result for `CCN1CCCC1CNC(=O)c1cnc(N2CCC(c3ccc([C@H](C)NC(C)=O)cc3)CC2)nc1` (stereo partly shown) [Example 18.44] reads 18.3 µM; that for `CCC(C)Oc1cc(N2CCC(c3ccc([C@H](C)NC(C)=O)cc3)CC2)ccn1` (stereo partly shown) [Example 19.13], 0.09 µM; that for `CC(=O)N[C@@H](C)c1ccc(C2CCN(c3ccc(OC4CCC4)c(Cl)c3)CC2)cc1` [Example 8.14], 0.13 µM.
As for `COc1cc(OC)cc(-c2cnc(N3CCC(c4ccc([C@H](C)NC(C)=O)cc4)CC3)nc2)c1` [Example 10.34], the IC50 came out at 0.21 µM.
With `CC(=O)N[C@@H](C)c1ccc(C2CCN(c3ccnc(OCC4CCC4)c3)CC2)cc1` [Example 19.11], the IC50 was 0.14 µM.
`CC(=O)N[C@@H](C)c1ccc(C2CCN(c3ccnc(Oc4cccc(F)c4)n3)CC2)cc1` [Example 11.28]: the IC50 was determined as 0.35 µM.
With `CCOCC(=O)N[C@@H](C)c1ccc(C2CCN(c3ccc(OCC)cc3)CC2)cc1` [Example 6.17] the figure was 1.9 µM; with `CC(=O)N[C@@H](C)c1ccc(C2CCN(c3cccc(OCC(C)(C)C)c3)CC2)cc1` [Example 9.4], 0.04 µM.
The result for `CC(=O)N[C@@H](C)c1ccc(C2CCN(c3noc(-c4ccccc4)n3)CC2)cc1` [Example 26.1, (S)—N-(1-{4-[1-(5-Phenyl-[1,2,4]oxadiazol-3-yl)-piperidin-4-yl]-phenyl}-ethyl)-acetamide] reads 1.9 µM; that for `CCOC(=O)c1ccnc(N2CCC(c3ccc([C@H](C)NC(C)=O)cc3)CC2)c1C` [Example 5.29], 0.17 µM; that for `COc1ccc(N2CCC(c3ccc([C@H](C)NC(C)=O)cc3)CC2)cc1C` [Example 1.160], 2.1 µM.
With `CCC(NC(C)=O)c1ccc(C2CCN(c3ccc(OCC4CC4(F)F)cc3)CC2)cc1` (stereo not shown) [Example 1.205] the figure was 0.66 µM; with `COc1cccc(Oc2nccc(N3CCC(c4ccc([C@H](C)NC(C)=O)cc4)CC3)n2)c1` [Example 11.32], 1.1 µM; with `CCCCOc1ccc(N2CCC(c3ccc([C@H](C)NC(C)=O)cc3)CC2)cc1` [Example 1.3], 0.09 µM.
For `COc1cc(N2CCC(c3ccc([C@H](C)NC(C)=O)cc3)CC2)ccc1OCC1CCO1` (stereo partly shown) [Example 8.49], the half-maximal inhibitory concentration (IC50) was found to be 26.6 µM.
With `CC(=O)N[C@@H](C)c1ccc(C2CCN(c3ccc(C(C)(C)C)nc3)CC2)cc1` [Example 15.12] the figure was 2.2 µM; with `CCCOc1ccnc(N2CCC(c3ccc([C@H](C)NC(C)=O)cc3)CC2)c1` [Example 5.48], 0.42 µM.
The result for `CC(=O)N[C@@H](C)c1ccc(C2CCN(c3ccnc(OC(C)C)n3)CC2)cc1` [Example 11.38] reads 0.56 µM; that for `CC(=O)N[C@@H](C)c1ccc(C2CCN(c3ncc(C(=O)NC4CCN(C)C4)cn3)CC2)cc1` (stereo partly shown) [Example 18.81], 16.5 µM.
On to `CC(=O)N[C@@H](C)c1ccc(C2CCN(c3ccc(I)cn3)CC2)cc1` [Example 5.12], for which the IC50 turned out to be 0.22 µM.
In the case of `CCCC(C)Oc1ccc(N2CCC(c3ccc([C@H](C)NC(C)=O)cc3)CC2)cc1Cl` (stereo partly shown) [Example 8.60], the half-inhibitory concentration (IC50) was determined as 0.18 µM.
With `CC(=O)N[C@@H](C)c1ccc(C2CCN(c3ncc(-c4ccsc4)cn3)CC2)cc1` [Example 10.62] the figure was 0.05 µM.
The result for `CC(=O)N[C@@H](C)c1ccc(C2CCN(c3cc(C)ccn3)CC2)cc1` [Example 5.41] reads 5 µM.
As for `C[C@H](NC(=O)C1CC1)c1ccc(C2CCN(c3ncc(C#N)c(N(C)CC4CC4)n3)CC2)cc1` [Example 11.127], the half-maximal inhibitory concentration (IC50) stood at 3.5 µM.
As for `CCOc1ncc(N2CCC(c3ccc([C@H](C)NC(C)=O)cc3)CC2)cn1` [Example 16.1, (S)—N-(1-M{4-[1-(2-Ethoxy-pyrimidin-5-yl)-piperidin-4-yl]-phenyl}-ethyl)-acetamide], the half-maximal inhibitory concentration (IC50) was determined as 1.4 µM.
The result for `CC(=O)N[C@@H](C)c1ccc(C2CCN(c3ccc4c(c3)OCCO4)CC2)cc1` [Example 1.40] reads 0.14 µM.
Take `CC(=O)N[C@@H](C)c1ccc(C2CCN(c3cc(NC4CC4)ncn3)CC2)cc1` [Example 11.132]: the IC50 was determined as 3 µM.
The result for `CC(=O)N[C@@H](C)c1ccc(C2CCN(c3ccc(OC4CCCCC4)cc3)CC2)cc1` [Example 9.23] reads 0.2 µM; that for `CCC(C)Oc1ccc(N2CCC(c3ccc([C@H](C)NC(C)=O)cc3)CC2)cc1C` (stereo partly shown) [Example 8.51], 0.76 µM; that for `C[C@H](NC(=O)N(C)C)c1ccc(C2CCN(c3ccc(OCC4CCC4)cc3)CC2)cc1` [Example 1.142], 0.06 µM.
